How the values were obtained:
Assay type in all cases: cell-based
[1] = test system: Coxsackie virus B3; assay: in vitro inhibition of Coxsackie virus B3 replication; conditions: for SI against Coxsackie virus B3 replication: selectivity index, preliminary in vitro assay
[2] = test system: influenza virus A/Hanfang/359/95 (H3N2); assay: in vitro antiviral assay against influenza virus A/Hanfang/359/95; conditions: selectivity index, preliminary in vitro assay
[3] = test system: herpes simplex virus 1 (HSV-1); assay: in vitro antiviral assay against herpes simplex virus 1

Compound | IC50 ([1]; Enterovirus B, B3, read-out: IC50 against Coxsackie virus B3 replication) [nM] | SI against Coxsackie virus B3 replication [1] | SI against influenza virus A/Hanfang/359/95 (H3N2) [2] | IC50 ([3]; Human alphaherpesvirus 1, read-out: IC50 against herpes simplex virus 1 (HSV-1)) [nM] | SI against herpes simplex virus 1 (HSV-1) ([3]; selectivity index, preliminary in vitro assay)
Cc1cc(CCCOc2c(C)cc(-c3noc(C(F)(F)F)n3)cc2C)on1 [Pleconaril] | 410 | 243.9 |  |  | 
NC(=O)c1ncn([C@@H]2O[C@H](CO)[C@@H](O)[C@H]2O)n1 [RBV] |  | 9.0 | 1200 |  | 
Nc1nc2c(ncn2COCCO)c(=O)[nH]1 [acyclovir] |  |  |  | 710 | 140.9

From publication PMC6251858 (Acta Pharmaceutica Sinica. B, 2018)
